Experimental data as given in patent US11939331B2, “Tricyclic heterocycles as FGFR inhibitors” (Incyte Corporation, priority 2021, dated 2024).

Molecular target: wild-type un-phosphorylated FGFR3 protein (Homo sapiens, UniProt P22607)
Assay: FGFR Enzymatic Assay (FRET peptide phosphorylation)
Protocol: The inhibitor potency of the exemplified compounds was determined in an enzyme discontinuous assay that measures peptide phosphorylation using FRET measurements to detect product formation. Inhibitors were serially diluted in DMSO and a volume of 0.2 μL was transferred to the wells of a 384-well plate. A 5 μL/well volume of enzyme isoforms of FGFR (-1, -2, -3 wild-type and mutant isoforms, -4) including phosphorylated and un-phosphorylated proteins diluted in assay buffer (50 mM HEPES, 10 mM MgCl2, 1 mM EGTA, 0.01% Tween-20, 5 mM DTT, pH 7.5) was added to the plate and pre-incubated with inhibitor for 5 to 15 minutes at ambient temperature. Appropriate controls (enzyme blank and enzyme with no inhibitor) were included on the plate. The reaction was initiated by the addition of a 5 μL/well volume containing both biotinylated [sequence] peptide substrate (SEQ ID NO: 1) and ATP in assay buffer. The 10 μL/well reaction concentration of the peptide substrate was 500 nM whereas the ATP concentration was maintained near or below the ATP Km. The ATP Km values were pre-determined in a separate series of experiments. The reaction plate was incubated at 25° C. for 1 hr and the reactions were ended with the addition of 5 μL/well of quench solution (50 mM Tris, 150 mM NaCl, 0.5 mg/mL BSA, pH 7.8; 45 mM EDTA, 600 nM staurosporin, with Perkin Elmer Lance Reagents at 3.75 nM Eu-antibody PY20 and 180 nM APC-Streptavidin). The plate was allowed to equilibrate for ˜10 minutes at ambient temperature before scanning on a PheraStar plate reader (BMG Labtech) instrument.
Either GraphPad prism or XLfit was used to analyze the data. The IC50 values were derived by fitting the data to a four parameter logistic equation producing a sigmoidal dose-response curve with a variable Hill coefficient. Prism equation: Y=Bottom+(Top−Bottom)/(1+10^((Log IC50−X)*Hill slope)); XLfit equation: Y=(A+((B−A)/(1+((X/C)^D)))) where X is the logarithm of inhibitor concentration and Y is the response.

Chain of wild-type un-phosphorylated FGFR3 protein (P22607 23-806): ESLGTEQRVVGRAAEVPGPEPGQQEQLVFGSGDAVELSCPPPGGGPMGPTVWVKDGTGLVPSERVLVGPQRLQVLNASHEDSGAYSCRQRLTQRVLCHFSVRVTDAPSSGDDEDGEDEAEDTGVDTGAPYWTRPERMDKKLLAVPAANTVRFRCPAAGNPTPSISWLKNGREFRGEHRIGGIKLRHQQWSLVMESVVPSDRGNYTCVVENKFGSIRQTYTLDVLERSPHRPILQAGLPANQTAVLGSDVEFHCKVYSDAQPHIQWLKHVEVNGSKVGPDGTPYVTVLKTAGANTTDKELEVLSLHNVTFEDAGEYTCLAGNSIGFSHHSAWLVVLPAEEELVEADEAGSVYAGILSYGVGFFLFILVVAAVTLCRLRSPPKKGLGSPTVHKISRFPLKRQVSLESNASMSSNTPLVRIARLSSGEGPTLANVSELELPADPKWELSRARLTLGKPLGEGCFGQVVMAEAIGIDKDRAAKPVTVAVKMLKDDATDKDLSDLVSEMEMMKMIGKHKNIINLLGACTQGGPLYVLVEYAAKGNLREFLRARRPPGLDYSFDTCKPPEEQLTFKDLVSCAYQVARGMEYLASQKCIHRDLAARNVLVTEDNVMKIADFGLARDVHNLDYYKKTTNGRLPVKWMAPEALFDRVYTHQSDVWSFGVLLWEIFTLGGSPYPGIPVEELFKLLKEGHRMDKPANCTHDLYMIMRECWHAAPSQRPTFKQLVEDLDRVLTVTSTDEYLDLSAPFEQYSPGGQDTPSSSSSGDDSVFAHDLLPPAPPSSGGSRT

Structure (SMILES): NC(=O)c1c(-c2c(Cl)cccc2Cl)nc2c3cc(-c4cnn(CC(F)(F)F)c4)cnc3ccn12 [Example 33, 2-(2,6-Dichlorophenyl)-9-(1-(2,2,2-trifluoroethyl)-1H-pyrazol-4-yl)imidazo[2,1-f][1,6]naphthyridine-3-carboxamide]
- IC50: < 0.1 nM

Structure (SMILES): CN(C)CCn1cc(-c2cnc3ccn4c(C(N)=O)c(-c5c(Cl)cccc5Cl)nc4c3c2)cn1 [Example 34, 2-(2,6-Dichlorophenyl)-9-(1-(2-(dimethylamino)ethyl)-1H-pyrazol-4-yl)imidazo[2,1-f][1,6]naphthyridine-3-carboxamide]
- IC50: < 0.1 nM

Structure (SMILES): COCC(C)(C)n1cc(-c2cnc3ccn4c(C(N)=O)c(-c5c(Cl)cccc5Cl)nc4c3c2)cn1 [Example 35, 2-(2,6-Dichlorophenyl)-9-(1-(1-methoxy-2-methylpropan-2-yl)-1H-pyrazol-4-yl)imidazo[2,1-f][1,6]naphthyridine-3-carboxamide]
- IC50: < 0.1 nM

Structure (SMILES): CC(O)Cn1cc(-c2cnc3ccn4c(C(N)=O)c(-c5c(Cl)cccc5Cl)nc4c3c2)cn1 (centres unmarked) [Example 36, 2-(2,6-Dichlorophenyl)-9-(1-(2-hydroxypropyl)-1H-pyrazol-4-yl)imidazo[2,1-f][1,6]naphthyridine-3-carboxamide]
- IC50: < 0.1 nM

Structure (SMILES): CN(C)CCCn1cc(-c2cnc3ccn4c(C(N)=O)c(-c5c(Cl)cccc5Cl)nc4c3c2)cn1 [Example 37, 2-(2,6-Dichlorophenyl)-9-(1-(3-(dimethylamino)propyl)-1H-pyrazol-4-yl)imidazo[2,1-f][1,6]naphthyridine-3-carboxamide]
- IC50: < 0.1 nM

Structure (SMILES): NC(=O)c1c(-c2c(Cl)cccc2Cl)nc2c3cc(-c4ccc(=O)[nH]c4)cnc3ccn12 [Example 39, 2-(2,6-Dichlorophenyl)-9-(6-oxo-1,6-dihydropyridin-3-yl)imidazo[2,1-f][1,6]naphthyridine-3-carboxamide]
- IC50: 0.1 to 1 nM

Structure (SMILES): CC(C)c1[nH]ncc1-c1cnc2ccn3c(C(N)=O)c(-c4c(Cl)cccc4Cl)nc3c2c1 [Example 40, 2-(2,6-Dichlorophenyl)-9-(5-isopropyl-1H-pyrazol-4-yl)imidazo[2,1-f][1,6]naphthyridine-3-carboxamide]
- IC50: 1 to 10 nM

Structure (SMILES): NC(=O)c1c(-c2c(Cl)cccc2Cl)nc2c3cc(-c4cnn5c4CCC5)cnc3ccn12 [Example 41, 2-(2,6-Dichlorophenyl)-9-(5,6-dihydro-4H-pyrrolo[1,2-b]pyrazol-3-yl)imidazo[2,1-f][1,6]naphthyridine-3-carboxamide]
- IC50: 0.1 to 1 nM

Structure (SMILES): CC(C)(O)c1cncc(-c2cnc3ccn4c(C(N)=O)c(-c5c(Cl)cccc5Cl)nc4c3c2)c1 [Example 42, 2-(2,6-Dichlorophenyl)-9-(5-(2-hydroxypropan-2-yl)pyridin-3-yl)imidazo[2,1-f][1,6]naphthyridine-3-carboxamide]
- IC50: 1 to 10 nM

Structure (SMILES): CNc1ncc(-c2cnc3ccn4c(C(N)=O)c(-c5c(Cl)cccc5Cl)nc4c3c2)cn1 [Example 43, 2-(2,6-Dichlorophenyl)-9-(2-(methylamino)pyrimidin-5-yl)imidazo[2,1-f][1,6]naphthyridine-3-carboxamide]
- IC50: 0.1 to 1 nM

Structure (SMILES): NC(=O)c1c(-c2c(Cl)cccc2Cl)nc2c3cc(-c4cnn(C5CCOC5)c4)cnc3ccn12 (centres unmarked) [Example 44, 2-(2,6-Dichlorophenyl)-9-(1-(tetrahydrofuran-3-yl)-1H-pyrazol-4-yl)imidazo[2,1-f][1,6]naphthyridine-3-carboxamide]
- IC50: < 0.1 nM

Structure (SMILES): NC(=O)c1c(-c2c(Cl)cccc2Cl)nc2c3cc(-c4cnn(CCN5CCOCC5)c4)cnc3ccn12 [Example 45, 2-(2,6-Dichlorophenyl)-9-(1-(2-morpholinoethyl)-1H-pyrazol-4-yl)imidazo[2,1-f][1,6]naphthyridine-3-carboxamide]
- IC50: 0.1 to 1 nM

Structure (SMILES): CN1CCN(CCn2cc(-c3cnc4ccn5c(C(N)=O)c(-c6c(Cl)cccc6Cl)nc5c4c3)cn2)CC1 [Example 46, 2-(2,6-Dichlorophenyl)-9-(1-(2-(4-methylpiperazin-1-yl)ethyl)-1H-pyrazol-4-yl)imidazo[2,1-f][1,6]naphthyridine-3-carboxamide]
- IC50: 0.1 to 1 nM

Structure (SMILES): NC(=O)c1c(-c2c(Cl)cccc2Cl)nc2c3cc(-c4cnn(CCCO)c4)cnc3ccn12 [Example 47, 2-(2,6-Dichlorophenyl)-9-(1-(3-hydroxypropyl)-1H-pyrazol-4-yl)imidazo[2,1-f][1,6]naphthyridine-3-carboxamide]
- IC50: < 0.1 nM

Structure (SMILES): N#CCCn1cc(-c2cnc3ccn4c(C(N)=O)c(-c5c(Cl)cccc5Cl)nc4c3c2)cn1 [Example 48, 9-(1-(2-Cyanoethyl)-1H-pyrazol-4-yl)-2-(2,6-dichlorophenyl)imidazo[2,1-f][1,6]naphthyridine-3-carboxamide]
- IC50: < 0.1 nM

Structure (SMILES): NC(=O)Cn1cc(-c2cnc3ccn4c(C(N)=O)c(-c5c(Cl)cccc5Cl)nc4c3c2)cn1 [Example 49, 9-(1-(2-Amino-2-oxoethyl)-1H-pyrazol-4-yl)-2-(2,6-dichlorophenyl)imidazo[2,1-f][1,6]naphthyridine-3-carboxamide]
- IC50: < 0.1 nM

Structure (SMILES): CC(C)(O)c1ccc(-c2cnc3ccn4c(C(N)=O)c(-c5c(Cl)cccc5Cl)nc4c3c2)cn1 [Example 50, 2-(2,6-Dichlorophenyl)-9-(6-(2-hydroxypropan-2-yl)pyridin-3-yl)imidazo[2,1-f][1,6]naphthyridine-3-carboxamide]
- IC50: 0.1 to 1 nM

Structure (SMILES): NC(=O)c1c(-c2c(Cl)cccc2Cl)nc2c3cc(-c4ccc(CC(F)(F)F)nc4)cnc3ccn12 [Example 51, 2-(2,6-Dichlorophenyl)-9-(6-(2,2,2-trifluoroethyl)pyridin-3-yl)imidazo[2,1-f][1,6]naphthyridine-3-carboxamide]
- IC50: 0.1 to 1 nM

Structure (SMILES): CNC(=O)c1ccc(-c2cnc3ccn4c(C(N)=O)c(-c5c(Cl)cccc5Cl)nc4c3c2)cn1 [Example 52, 2-(2,6-Dichlorophenyl)-9-(6-(methylcarbamoyl)pyridin-3-yl)imidazo[2,1-f][1,6]naphthyridine-3-carboxamide]
- IC50: 0.1 to 1 nM

Structure (SMILES): NC(=O)c1c(-c2c(Cl)cccc2Cl)nc2c3cc(C4=CCC(O)CC4)cnc3ccn12 (centres unmarked) [Example 53, 2-(2,6-Dichlorophenyl)-9-(4-hydroxycyclohex-1-en-1-yl)imidazo[2,1-f][1,6]naphthyridine-3-carboxamide]
- IC50: < 0.1 nM

Structure (SMILES): CC(C)(O)c1cnc2ccn3c(C(N)=O)c(-c4c(Cl)cccc4Cl)nc3c2c1 [Example 55, 2-(2,6-Dichlorophenyl)-9-(2-hydroxypropan-2-yl)imidazo[2,1-f][1,6]naphthyridine-3-carboxamide]
- IC50: 10 to 50 nM

Structure (SMILES): Cc1nc2c3cc(-c4cnn(C5CCOCC5)c4)cnc3ccn2c1C(N)=O [Example 57, 2-Methyl-9-(1-(tetrahydro-2H-pyran-4-yl)-1H-pyrazol-4-yl)imidazo[2,1-f][1,6]naphthyridine-3-carboxamide]
- IC50: 10 to 50 nM

Structure (SMILES): NC(=O)c1cnc2c3cc(-c4cnn(C5CCOCC5)c4)cnc3ccn12 [Example 58, 9-(1-(Tetrahydro-2H-pyran-4-yl)-1H-pyrazol-4-yl)imidazo[2,1-f][1,6]naphthyridine-3-carboxamide]
- IC50: 10 to 50 nM
